Data reported in patent US8377963B2, “Insulin-regulated aminopeptidase (IRAP) inhibitors and uses thereof” (Howard Florey Institute, priority 2007, dated 2013).

Key:
[1] = target: Angiotensin converting enzyme 1 (Homo sapiens, UniProt P12821); assay: Angiotensin converting enzyme assay; format: biochemical; settings: read-out: % inhibition of the catalytic activity of the enzyme
Method: Angiotensin converting enzyme assay. The enzyme (final concentration 0.02 pmol/100 L) was incubated with 200 μL of assay solution that included 5 mmol/L HHL in 100 mmol/L potassium buffer (pH 8.3) that contained 300 mmol/L NaCl and 10^−4 mol/L ZnSO4 for 3 hours at 37° C. The enzymatic reaction was stopped by the addition of 1.5 mL of 0.28N NaOH, 100 μL of o-phthaldialdehyde (20 mg/mL) in methanol was added and the fluorescent reaction stopped by the addition of 200 μL of 3N HCl. The product, L-His-Leu, was measured fluorometrically (360 nm excitation and 500 nm emission).
(§1) Limited inhibition of control enzymes was observed.

Recombinant human LTA4H = target: T1, Recombinant human LTA4H (Homo sapiens, UniProt P09960); assay: Leukotriene A4 hydrolase assay; format: biochemical; settings: read-out: % inhibition of the catalytic activity of the enzyme
T1 construct: purchased Cayman Chemicals
T1 sequence (P09960 1-611): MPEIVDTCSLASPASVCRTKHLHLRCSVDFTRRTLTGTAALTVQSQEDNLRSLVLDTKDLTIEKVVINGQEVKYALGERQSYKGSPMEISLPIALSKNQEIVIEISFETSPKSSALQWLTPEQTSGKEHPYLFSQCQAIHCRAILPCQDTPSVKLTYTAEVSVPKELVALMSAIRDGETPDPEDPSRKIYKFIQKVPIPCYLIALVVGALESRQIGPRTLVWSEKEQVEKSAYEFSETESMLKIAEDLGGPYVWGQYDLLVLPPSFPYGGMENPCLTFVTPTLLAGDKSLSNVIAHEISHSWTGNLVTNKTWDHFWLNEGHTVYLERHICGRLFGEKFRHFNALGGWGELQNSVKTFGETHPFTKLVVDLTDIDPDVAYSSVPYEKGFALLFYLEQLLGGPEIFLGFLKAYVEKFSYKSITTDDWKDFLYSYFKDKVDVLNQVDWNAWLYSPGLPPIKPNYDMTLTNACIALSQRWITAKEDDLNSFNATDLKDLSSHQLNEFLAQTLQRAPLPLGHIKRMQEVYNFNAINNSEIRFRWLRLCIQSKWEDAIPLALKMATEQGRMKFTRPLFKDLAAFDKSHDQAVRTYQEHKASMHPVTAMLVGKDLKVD
Method: Leukotriene A4 hydrolase assay. Recombinant human LTA4H (Cayman Chemicals Michigan USA) (1-20 μg) was incubated at room temperature with alanine-p-nitroanilide as substrate in 50 mM Tris-HCl buffer, pH 8.0, containing 100 mM KCl with or without increasing concentrations of an inhibitor. The absorbance at 405 nm was measured at 10 min intervals.
as §1

[2] = test system: Glucose-6-phosphate dehydrogenase/glucose hexokinase; assay: Glucose-6-phosphate dehydrogenase and hexokinase activity, fluorimetric assay; settings: 100 μM
Method: Glucose-6-phosphate dehydrogenase and hexokinase activity. Glucose-6-phosphate dehydrogenase and hexokinase activity in the absence and presence of the compounds was determined in a fluorimetric assay. Ten mM Tris MgCl2 buffer (total volume of 200 ml) containing glucose-6-phosphate dehydrogenase, 0.3M ATP, 30 mM NADP+ was added to 96 well microtitre plate together with 20 μl of compound, a reading at excitation 350 nm and emission 510 nm was taken followed by the addition of hexokinase and another reading.

Aminopeptidase N = target: T2, Aminopeptidase N (Sus scrofa, UniProt P15145); assay: Aminopeptidase N assay; format: biochemical; settings: read-out: % inhibition of the catalytic activity of the enzyme
T2 construct: purchased Sigma Aldrich
T2 sequence (P15145 1-963): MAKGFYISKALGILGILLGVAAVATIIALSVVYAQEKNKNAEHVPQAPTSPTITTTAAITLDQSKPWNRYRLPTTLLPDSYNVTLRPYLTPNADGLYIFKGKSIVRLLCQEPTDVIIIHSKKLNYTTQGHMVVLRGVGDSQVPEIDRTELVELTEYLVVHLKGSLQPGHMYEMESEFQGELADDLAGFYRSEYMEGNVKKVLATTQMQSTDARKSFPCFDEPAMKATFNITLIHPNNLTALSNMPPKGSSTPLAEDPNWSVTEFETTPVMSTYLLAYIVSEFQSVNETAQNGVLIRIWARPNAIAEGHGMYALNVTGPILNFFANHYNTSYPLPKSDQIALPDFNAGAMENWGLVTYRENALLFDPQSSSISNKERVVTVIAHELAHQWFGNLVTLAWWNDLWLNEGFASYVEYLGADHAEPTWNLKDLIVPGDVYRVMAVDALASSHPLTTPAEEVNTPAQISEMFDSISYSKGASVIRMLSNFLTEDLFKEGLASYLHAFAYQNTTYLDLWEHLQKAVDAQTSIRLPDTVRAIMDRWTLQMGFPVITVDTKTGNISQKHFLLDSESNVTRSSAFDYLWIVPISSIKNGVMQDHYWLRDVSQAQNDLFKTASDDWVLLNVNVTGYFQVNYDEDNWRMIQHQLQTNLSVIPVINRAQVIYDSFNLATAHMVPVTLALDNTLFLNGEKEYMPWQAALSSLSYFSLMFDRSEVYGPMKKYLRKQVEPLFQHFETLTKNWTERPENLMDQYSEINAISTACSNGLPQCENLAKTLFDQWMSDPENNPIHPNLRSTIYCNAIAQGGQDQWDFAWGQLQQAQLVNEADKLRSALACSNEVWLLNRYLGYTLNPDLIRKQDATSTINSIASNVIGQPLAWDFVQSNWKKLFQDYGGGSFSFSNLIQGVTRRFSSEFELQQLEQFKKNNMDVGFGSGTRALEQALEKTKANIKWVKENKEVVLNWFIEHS
Method: Aminopeptidase N assay. 5 mU of aminopeptidase M (Sigma Aldrich) was incubated with 100 μM of substrate alanine-β-naphthylamide (Sigma Aldrich) in Tris buffered saline (50 mM Tris-HCl, 150 mM NaCl pH 7.5) at 25° C. IRAP inhibitors (1-10 μM) were added after 1 minute and fluorescence at 405 nm was followed.
as §1

IRAP = target: T3, IRAP (Homo sapiens, UniProt Q9UIQ6); assay: IRAP enzymatic assay (hydrolysis of Leu-MCA); format: biochemical; settings: substrate Leu-MCA, solubilized membranes of HEK 293T cells transfected with IRAP
T3 construct: expressed in transfected cells; host or cells: HEK 293T
Method: An in vitro enzymatic assay was used to initially assess IRAP inhibitory activity.
After solubilization, the membranes were pelleted by centrifugation at 23,100 g for 15 min at 4° C., and the supernatant was reserved as the source of IRAP activity. The enzymatic activities of IRAP were determined by the hydrolysis of the synthetic substrate Leu-MCA (Sigma-Aldrich, Missouri, USA) monitored by the release of a fluorogenic product, MCA, at excitation and emission wavelengths of 380 and 440 nm, respectively. Assays were performed in 96-well plates; each well contains between […] solubilized membrane protein, a range of concentration of substrate in a final volume of 100 μL 50 mM Tris-HCl buffer (pH 7.4). Non-specific hydrolysis of the substrate was corrected by subtracting the emission from incubations with membranes transfected with empty vector. Reactions proceeded at 37° C. for 30 min within a thermostatted FLEX station fluorescence microplate reader (Molecular Devices, Sunnyvale, Calif.). […] Km values of IRAP for Leu-MCA were determined from the kinetic studies. […] All data obtained were from at least three separate experiments performed in duplicate.

Chain of Angiotensin converting enzyme 1 (P12821 30-1306): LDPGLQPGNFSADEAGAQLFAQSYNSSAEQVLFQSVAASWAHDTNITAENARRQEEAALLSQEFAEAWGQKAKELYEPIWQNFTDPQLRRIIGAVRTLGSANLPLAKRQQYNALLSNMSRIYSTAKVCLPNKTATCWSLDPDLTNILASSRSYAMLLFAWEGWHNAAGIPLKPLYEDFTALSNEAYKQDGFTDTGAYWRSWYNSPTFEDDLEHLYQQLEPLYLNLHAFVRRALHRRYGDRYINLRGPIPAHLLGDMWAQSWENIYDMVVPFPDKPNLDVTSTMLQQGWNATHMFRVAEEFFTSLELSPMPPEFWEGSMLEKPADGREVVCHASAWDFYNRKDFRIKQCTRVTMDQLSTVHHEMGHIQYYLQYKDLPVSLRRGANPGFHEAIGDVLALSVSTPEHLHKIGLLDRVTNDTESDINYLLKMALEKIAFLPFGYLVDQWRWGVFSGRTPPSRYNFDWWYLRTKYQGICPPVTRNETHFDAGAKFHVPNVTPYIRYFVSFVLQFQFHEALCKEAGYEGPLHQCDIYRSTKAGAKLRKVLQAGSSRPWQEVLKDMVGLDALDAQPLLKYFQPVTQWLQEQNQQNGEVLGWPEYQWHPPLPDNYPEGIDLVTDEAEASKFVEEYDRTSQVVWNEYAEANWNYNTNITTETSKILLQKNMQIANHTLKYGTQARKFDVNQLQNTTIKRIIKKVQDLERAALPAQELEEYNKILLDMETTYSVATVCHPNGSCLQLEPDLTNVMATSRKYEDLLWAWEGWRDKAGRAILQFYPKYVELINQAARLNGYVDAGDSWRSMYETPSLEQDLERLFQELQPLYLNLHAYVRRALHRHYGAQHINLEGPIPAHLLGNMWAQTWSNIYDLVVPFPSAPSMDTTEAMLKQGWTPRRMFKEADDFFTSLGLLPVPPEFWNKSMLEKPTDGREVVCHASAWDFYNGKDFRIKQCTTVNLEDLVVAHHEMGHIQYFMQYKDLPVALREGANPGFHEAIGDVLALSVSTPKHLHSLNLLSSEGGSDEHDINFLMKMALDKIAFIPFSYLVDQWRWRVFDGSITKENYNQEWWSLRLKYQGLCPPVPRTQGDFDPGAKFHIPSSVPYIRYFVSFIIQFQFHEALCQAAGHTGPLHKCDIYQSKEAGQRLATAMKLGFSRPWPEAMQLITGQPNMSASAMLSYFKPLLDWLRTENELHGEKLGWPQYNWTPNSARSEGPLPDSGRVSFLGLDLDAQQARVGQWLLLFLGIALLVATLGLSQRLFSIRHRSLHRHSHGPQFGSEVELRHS
T3 sequence (Q9UIQ6 whole entry): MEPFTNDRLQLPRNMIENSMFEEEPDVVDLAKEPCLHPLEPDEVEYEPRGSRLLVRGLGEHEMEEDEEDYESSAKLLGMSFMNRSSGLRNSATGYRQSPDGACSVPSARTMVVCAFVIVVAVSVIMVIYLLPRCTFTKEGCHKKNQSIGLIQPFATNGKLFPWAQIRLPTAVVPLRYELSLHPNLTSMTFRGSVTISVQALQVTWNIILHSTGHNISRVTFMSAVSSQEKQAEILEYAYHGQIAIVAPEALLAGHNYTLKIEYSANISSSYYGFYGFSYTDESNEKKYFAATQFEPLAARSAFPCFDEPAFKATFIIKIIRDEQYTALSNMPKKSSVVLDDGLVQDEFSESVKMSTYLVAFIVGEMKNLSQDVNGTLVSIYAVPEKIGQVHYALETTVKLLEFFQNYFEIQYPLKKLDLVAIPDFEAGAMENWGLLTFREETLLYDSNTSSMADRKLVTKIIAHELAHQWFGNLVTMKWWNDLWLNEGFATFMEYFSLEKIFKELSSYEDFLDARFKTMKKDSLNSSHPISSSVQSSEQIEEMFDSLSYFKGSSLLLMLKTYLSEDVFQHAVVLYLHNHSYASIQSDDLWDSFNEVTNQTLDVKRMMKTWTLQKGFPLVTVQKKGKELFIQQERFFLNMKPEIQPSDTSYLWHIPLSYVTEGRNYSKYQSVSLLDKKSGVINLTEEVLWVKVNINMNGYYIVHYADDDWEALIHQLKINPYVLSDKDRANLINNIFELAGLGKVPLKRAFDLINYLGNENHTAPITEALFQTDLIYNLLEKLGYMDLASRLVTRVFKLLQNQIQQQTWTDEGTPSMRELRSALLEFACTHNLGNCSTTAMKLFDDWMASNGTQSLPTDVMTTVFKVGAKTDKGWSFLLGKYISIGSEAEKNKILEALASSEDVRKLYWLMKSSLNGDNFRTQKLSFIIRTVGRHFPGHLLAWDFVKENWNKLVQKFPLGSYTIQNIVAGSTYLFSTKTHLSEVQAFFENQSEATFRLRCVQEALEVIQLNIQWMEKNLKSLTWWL

Row | IC50 (IRAP) | Ki (IRAP; calculated from IC50=Ki(1+[S]/Km), read-out: K1) | inhibition at 10 µM (Recombinant human LTA4H; 10 μM) | inhibition at 100 µM (Aminopeptidase N; 100 μM) | Structure (SMILES) | inhibition at 10 µM [1] | inhibition at 100 µM [1] | inhibition at 100 µM (Recombinant human LTA4H) | % inhibition of the catalytic activity of the enzyme [2] | inhibition at 10 µM (Aminopeptidase N)
1 | – | – | – | – | CCOC(=O)C1=C(N)Oc2cc(O)ccc2C1c1cnc2ccccc2c1 (stereo not shown) [Compound 3, Ethyl 2-amino-7-hydroxy-4-quinolin-3-yl-4H-chromene-3-carboxylate] | 0% | 3% | 4% | 0% | 12%
2 | 3 µM | 2 µM | – | – | CCOC(=O)C1=C(N)Oc2cc(O)ccc2C1c1cccnc1 (stereo not shown) [reference compound] | – | – | – | – | –
3 | – | – | 0% | 14% | CCOC(=O)C1=C(NC(C)=O)Oc2cc(O)ccc2C1c1cnc2ccccc2c1 (stereo not shown) [Compound 4, Ethyl 2-(acetylamino)-7-hydroxy-4-quinolin-3-yl-4H-chromene-3-carboxylate] | 0% | 0% | 25% | – | 3%
